Like-named read-outs stand apart in the source and are kept apart here.
Key:
[1] = system: luciferase-expressing P. berghei liver stage parasites in HepG2 cells; test: Inhibition of liver-stage development assay (ILSDA), Method 2 (WRAIR, 96-well); assay type: cell-based, Plasmodium berghei; details: for Activity direction (Decrease / Inactive): P. berghei liver stage; for Max Resp (signal direction of the dose response): Decrease = decreasing P. berghei viability with dose, Increase = increasing signal, Inactive = no dose response
[2] = system: Plasmodium falciparum Dd2 asexual blood stage parasites; test: microbe, parasite or virus in culture; design: species or system Plasmodium falciparum Dd2 in human erythrocytes; single determination (one 11-point concentration-response curve); details: Plasmodium falciparum, DD2, Erythrocyte, 72 h; read-out: AC50
[3] = system: P. berghei-ANKA-GFP-LucCON liver stage parasites in HepG2-A16-CD81EGFP cells; test: P. berghei liver stage Pb-Luc assay, Method 1 (UCSD, 1536-well); assay type: cell-based, Plasmodium berghei; details: Method 1; for Max Resp (signal direction of the dose response): Decrease = decreasing P. berghei viability with dose, Increase = increasing signal, Inactive = no dose response
[4] = Plasmodium berghei, Hill fit, 50% of maximum activity response, read-out: AC50
[5] = Plasmodium berghei, log10 of molar AC50 from Hill fit, read-out: Log AC50 (converted)
[6] = Plasmodium berghei, HepG2, Method 2, Hill fit, 50% of maximum activity response, read-out: AC50
[7] = Plasmodium berghei, HepG2, Method 2, log10 of molar AC50 from Hill fit, read-out: Log AC50 (converted)
[8] = Plasmodium berghei, HepG2, P. berghei liver stage, Method 2, dose response, read-out: AC50
[9] = Plasmodium berghei, HepG2, P. berghei liver stage, Method 2, dose response, read-out: Log AC50 (converted)

SMILES | Activity direction (Decrease / Inactive) ([1]; Method 2, dose response) | AC50 [2] | Max Resp (signal direction of the dose response) ([1]; Method 2) | AC50 [1, 6] | AC50 [1, 7] | other results
CCC1=N[S+](=O)([O-])c2cc(NC(=O)C3CC3)ccc2N1CC(C)C [NCGC00475158-01] | Inactive |  |  |  |  | 
O=[S+]([O-])(NCC1CN(Cc2ccc(O)cc2)CC12CN(c1ccccc1)C2)c1ccccc1 (stereo not drawn) [NCGC00415939-01] | Inactive | 6680 nM |  |  |  | 
O=C(NCC1CN(C(=O)Cc2cccc(OC(F)(F)F)c2)CC12CN(c1ccccc1)C2)c1ccccc1 (stereo not drawn) [NCGC00415900-01] | Inactive |  |  |  |  | 
COc1ccc(-n2nc(C)c([C@@H]3C=C[C@@H](NCc4ccc(N(C)C)cc4)C3)c2C)cc1 [NCGC00394616-01] |  | 4330 nM | Decrease | 2820 nM | 2820 nM | Max Resp (signal direction of the dose response) [3]: Decrease; AC50 ([3]; Hill fit, 50% of maximum activity response, read-out: AC50): 1580 nM; Log AC50 (M) ([3]; log10 of molar AC50 from Hill fit): -5.800 M; AC50 [3, 4]: 1410 nM; AC50 [3, 5]: 1410 nM
Cc1cccc(N(C)c2nc3ccccc3c3nnc(C)n23)c1 [NCGC00126108-01] |  | 1060 nM | Decrease |  |  | Max Resp (signal direction of the dose response) [3]: Decrease; AC50 [3, 4]: 316 nM; AC50 [3, 5]: 316 nM; AC50 ([1]; Method 2, Hill fit, 50% of maximum activity response, read-out: AC50): 447 nM; Log AC50 (M) ([1]; Method 2, log10 of molar AC50 from Hill fit): -6.350 M
N#Cc1cccc(CN2CC(CNc3ccccc3)C3(C2)CN(c2ccccc2)C3)c1 (stereo not drawn) [NCGC00415808-01] | Decrease |  |  |  |  | AC50 [1, 8]: 2240 nM; AC50 [1, 9]: 2240 nM
O=C(O)c1cccc(CN2CC(CNC(=O)c3ccccc3)C3(C2)CN(c2ccccc2)C3)c1 (stereo not drawn) [NCGC00415857-01] | Decrease |  |  |  |  | AC50 [1, 8]: 891 nM; AC50 [1, 9]: 891 nM
c1ccc(OCC2CN(Cc3ccc4[nH]ccc4c3)CC23CN(c2ccccc2)C3)cc1 (stereo not drawn) [NCGC00415812-01] | Inactive |  |  |  |  | 
O=C(Nc1ncccc1O)c1ccc(S(=O)(=O)Nc2ccccc2)cc1 [MLS001099437-01] |  |  | Inactive |  |  | 
N#C/C(=C\c1ccc(Sc2ccc(Cl)cc2)o1)c1nc2ccccc2[nH]1 [MLS000579372-01] |  | 2990 nM | Decrease | 501 nM | 501 nM | 
CC(C)C1=N[S+](=O)([O-])c2cc(NC(=O)c3ccco3)ccc2N1c1ccccc1 [NCGC00473412-01] | Inactive |  |  |  |  | 
Clc1cnccc1CN1CC(CNc2ccccc2)C2(C1)CN(c1ccccc1)C2 (stereo not drawn) [NCGC00416018-01] | Inactive | 13700 nM |  |  |  | 
CCC(CC)c1cc([C@H]2CN3CC[C@H]2C[C@@H]3CNC(=O)Cc2cccs2)nc(-c2ccncc2)n1 [NCGC00400345-01] |  | 2990 nM | Decrease | 251 nM | 251 nM | Max Resp (signal direction of the dose response) [3]: Decrease; AC50 [3, 4]: 5620 nM; AC50 [3, 5]: 5620 nM
COc1ccc(-c2ccc3ncc(Nc4ccncc4)n3n2)cc1OC [NCGC00412536-01] |  | 4850 nM | Inactive |  |  | AC50 [3, 4]: 2240 nM; AC50 [3, 5]: 2240 nM
Cc1ccc(C)c(NC2=C(c3ccc(C(F)(F)F)cc3)C(=O)c3ccccc32)c1 [NCGC00107302] |  |  | Decrease | 398 nM | 398 nM | 
Cc1cccc(N2CCN(c3nc4ccccc4c4nnc(C)n34)CC2)c1C [NCGC00107423] |  |  | Inactive |  |  | 
CCCN1C(CC(C)C)=N[S+](=O)([O-])c2cc(NC(=O)C(C)C)ccc21 [NCGC00473220-01] | Decrease |  |  |  |  | AC50 [1, 8]: 1120 nM; AC50 [1, 9]: 1120 nM
Cc1ccc(NC2=C(c3ccc(C(F)(F)F)cc3)C(=O)c3ccccc32)cc1C [NCGC00107300] |  |  | Decrease | 398 nM | 398 nM | 
CC1CCc2cc(F)ccc2N1C(=O)CSc1nnc2c(n1)[nH]c1ccccc12 (stereo not drawn) [MLS000557140-01] |  | 7500 nM | Decrease | 5620 nM | 5620 nM | 
CCOC(=O)c1[nH]c(C)c(CCC(=O)N2CCN(c3cc(Cl)ccc3C)CC2)c1C [NCGC00134588-01] |  | 1190 nM | Decrease | 708 nM | 708 nM | Max Resp (signal direction of the dose response) [3]: Inactive
CC(C)c1ccc(CN2CC(CNc3cccnc3)C3(C2)CN(c2ccccc2)C3)cc1 (stereo not drawn) [NCGC00415809-01] | Inactive | 4850 nM |  |  |  | 
Cc1nc2c(c(N3CCCC(COc4cccc(F)c4)C3)n1)CCNCC2 (stereo not drawn) [NCGC00440030-01] | Inactive | 8410 nM |  |  |  | 
O=C(Nc1ccc2c(N3CCCCC3)ncnc2c1)c1cc(F)cc(F)c1 [NCGC00425525-01] | Decrease | 1880 nM |  |  |  | AC50 [3, 4]: 1410 nM; AC50 [3, 5]: 1410 nM; AC50 [1, 8]: 398 nM; AC50 [1, 9]: 398 nM
COc1ccc(NC2=C(c3ccc(C(F)(F)F)cc3)C(=O)c3ccccc32)cc1 [NCGC00107310] |  |  | Decrease | 282 nM | 282 nM | 
